These results are taken from patent US8293772B2, “Triazole substituted aminobenzophenone compounds” (Leo Pharma A/S, priority 2004, dated 2012).

The subject of one experiment is IL-1β. The experiment is described as follows: Inhibition of IL-1β secretion in LPS stimulated peripheral blood mononuclear cells. The experiment is classed as cell-based. The conditions noted are these: LPS stimulated human PBMC, 18 hours, ELISA; read-out: The median inhibition concentration (IC50, nM) of IL-1β. On the procedure: (§1) To study the effect of compounds of the present invention in vitro, the inhibition of IL-1β and TNF-α secretion was determined using the following procedure:
(§2) Cytokine production was measured in the media from lipopolysaccharide (LPS) stimulated peripheral blood mononuclear cells. The mononuclear cells were isolated from human peripheral blood by Lymphoprep® (Nycomed, Norway) fractionation and suspended in RPMI 1640 (growth medium) with foetal calf serum (FCS, 2%), at a concentration of 5×10^5 cells/ml. The cells were incubated in 24-well tissue culture plates in 1 ml aliquots. Test compounds were dissolved in dimethylsulfoxide (DMSO, 10 mM) and were diluted with the medium. Compounds were added to the cells for 30 minutes, then LPS ([…] final concentration) was added. The plates were incubated for 18 hours, and the concentration of IL-1β and TNF-α in the medium was determined by enzyme-linked immunosorbent assays. The median inhibitory concentrations (IC50) of the compounds were calculated.
(In general: ELISA stands for enzyme-linked immunosorbent assay.)

Experiment [1] relates to TNF-α. Description: Inhibition of TNF-α secretion in LPS stimulated peripheral blood mononuclear cells. The conditions noted are these: LPS stimulated human PBMC, 18 hours, ELISA; read-out: The median inhibition concentration (IC50, nM) of TNF-α. The experiment is classed as cell-based. On the procedure: as §1, §2
Experiment [2] concerns TNF-α. Description: In vivo screening model of LPS induced TNF-α response in mice. The conditions noted are these: Mus musculus, po, 1 mg/kg p.o., 1 hour prior to LPS, plasma TNF-α 80-90 minutes after LPS, read-out: In vivo inhibition of LPS induced TNF-α production (in %). On the procedure: In Vivo Screening Model of LPS Induced TNF-α Response in Mice
To study the effect of compounds of the present invention in vivo, an in vivo screening model of LPS induced TNF-α response in mice was set up as follows: Groups of 6 mice (C3H/HeN, female, about 8 weeks (20 g), Bomholtgaard) were dosed with test compounds in suspension vehicle 1 hour prior to LPS administration (LPS from E. coli 055:B5, L-4005, Sigma). At time 0, the mice were dosed ip with 1.0 mg LPS/kg. After anesthetization with Hypnorm/Dormicum, the mice were bled from the periorbital venous plexus 80-90 minutes after LPS administration. The blood samples were sampled in EDTA stabilised tubes and centrifuged at 4000 rpm for 10 minutes at 4° C. The plasma level of TNF-α was analysed by ELISA. Compound 156 of WO 98/32730 was used as reference compound. The plasma level of TNF-α was determined using a sandwich ELISA. Microtiter plates were coated with a monoclonal antibody against mouse TNF-α, washed and blocked with a casein buffer. Samples of mouse TNF-α recombinant standards were added to the wells of the microtiter plates and incubated. All standards were tested in triplicate, all plasma samples in single. After sample and standard incubation, the plates were washed and incubated with biotinylated polyclonal secondary antibody against mouse TNF-α and washed. Enzyme conjugate was added to all wells and incubated. Substrate was added and the enzyme/substrate reaction stopped after 15 minutes at room temperature with 1M H2SO4. The colour development (OD) was measured at 450 nm on an ELISA reader and the background OD at 620 nm was subtracted. […] The results of the tested compounds are indicated as a percentage inhibition compared to an LPS treated control group. Compounds were tested at 1 mg/kg (p.o.). The Mann-Whitney test was used to compare drug treated groups to the LPS treated control group (p<0.05).

In the next experiment the target is T1, p38α MAP kinase (Homo sapiens, UniProt Q16539).
T1 construct: made in house; host or cells: COS-1 cells (transient co-transfection), immunoprecipitated with anti-FLAG M2 on Protein G Sepharose
The experiment is described as follows: p38α MAP kinase assay (immunoprecipitated FLAG-p38α from COS-1 cells, GST-ATF-2 substrate). The experiment is classed as biochemical. On the procedure: COS-1 cells (derived from African green monkey kidney fibroblast-like cell containing wild-type T antigen under control of the SV40 promotor) were obtained from ATCC (ATCC no. CRL-1650) and grown in growth medium (DMEM without phenolred, 10% FCS, 2 mM L-glutamine, 100U penicillin and 100 μg streptomycin/ml) at 37° C. with 5% CO2. The cells were passaged twice a week by trypsination (0.25% trypsin, 1 mM EDTA in PBS) and were split 1:10. The medium was changed every second or third day. The cell line was regularly tested with the Mycoplasma PCR Primer Set (Stratagene) and found to be free of Mycoplasma. Tissue culture media, FCS, L-glutamine and penicillin and streptomycin are from Bribco BRL, Gaithersburg, Md., USA.
On day one COS-1 cells were seeded in 143 cm^2 petridish with a density of 2×10^4 celler/cm^2 in growth medium. At day 2 the cells were co-transfected with 5 μg (total) of experimental plasmid DNA, expressing the FLAG-p38α and FLAG-MKK6(EE). The plasmids were introduced into the COS-1 cells in serum-free medium using DOTAP™ (Boehringer-Mannheim, Mannheim, Germany). Plasmid DNA was prepared and purified using the QIAGEN EndoToxin-free Maxiprep-500 kit (Hilden, Germany). Briefly, DNA and DOTAP™ were mixed for exactly 15 min. at 37° C. in the CO2 incubator. […]

Experiment [3] relates to TNF-α. Description: In vivo screening model of LPS induced TNF-α response in mice. The conditions noted are these: Mus musculus, ip, tested at 10 mg/kg i.p., plasma TNF-α 80-90 minutes after LPS, read-out: In vivo inhibition of LPS induced TNF-α production (in %).

T1 sequence (Q16539 whole entry): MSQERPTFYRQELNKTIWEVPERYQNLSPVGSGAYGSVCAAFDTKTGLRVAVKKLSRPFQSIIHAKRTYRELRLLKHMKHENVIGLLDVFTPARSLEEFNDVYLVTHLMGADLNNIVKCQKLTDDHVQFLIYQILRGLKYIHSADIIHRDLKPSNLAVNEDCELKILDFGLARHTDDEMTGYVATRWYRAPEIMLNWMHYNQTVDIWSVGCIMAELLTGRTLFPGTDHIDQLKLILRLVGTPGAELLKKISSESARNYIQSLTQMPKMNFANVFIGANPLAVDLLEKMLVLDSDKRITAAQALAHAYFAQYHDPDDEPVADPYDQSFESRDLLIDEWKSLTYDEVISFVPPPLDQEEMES

For orientation: inhibition in vivo means the percentage by which the read-out fell short of the control. Take `Cc1ccc(-c2cn(CCO)nn2)cc1C(=O)c1ccc(Nc2ccc(F)cc2F)cc1Cl` [Compound 102, [2-Chloro-4-(2,4-difluoro-phenylamino)-phenyl]-{5-[1-(2-hydroxy-ethyl)-1H-[1,2,3]triazol-4-yl]-2-methyl-phenyl}-methanone]: the IC50 in the experiment on IL-1β came out at 1.3 nM; in the experiment with TNF-α [1], 0.5 nM. For the same compound, the inhibition in vivo at 1 mg/kg with TNF-α [2] stood at 94%. The “p38 MAP kinase inhibition” value at p38α MAP kinase was “potent p38 MAP kinase inhibitor”.

Turning to `Cc1ccc(-c2cn(CCCS(N)(=O)=O)nn2)cc1C(=O)c1ccc(Nc2ccc(F)cc2F)cc1Cl` [Compound 108, 3-(4-{3-[2-Chloro-4-(2,4-difluoro-phenylamino)-benzoyl]-4-methyl-phenyl}-[1,2,3]triazol-1-yl)-propane-1-sulfonic acid amide], the figures for the IC50 in the experiment on IL-1β and with TNF-α [1] were 1.3 nM and 0.7 nM, respectively. In addition, the inhibition in vivo at 1 mg/kg in the experiment on TNF-α [2] is 78%.

Take `Cc1ccc(-c2cn(CCNS(C)(=O)=O)nn2)cc1C(=O)c1ccc(Nc2ccc(F)cc2F)cc1Cl` [Compound 109, N-[2-(4-{3-[2-Chloro-4-(2,4-difluoro-phenylamino)-benzoyl]-4-methyl-phenyl}-[1,2,3]triazol-1-yl)-ethyl]-methanesulfonamide]: the values for the IC50 in the experiment with IL-1β and in the experiment with TNF-α [1] were 1.9 nM and 1.2 nM, respectively. Also, the inhibition in vivo at 1 mg/kg in the experiment with TNF-α [2] was determined as 79%.

Turning to `CCNC(=O)Cn1cc(-c2ccc(C)c(C(=O)c3ccc(Nc4ccc(F)cc4F)cc3Cl)c2)nn1` [Compound 112, 2-(4-{3-[2-Chloro-4-(2,4-difluoro-phenylamino)-benzoyl]-4-methyl-phenyl}-[1,2,3]triazol-1-yl)-N-ethyl-acetamide], the IC50 in the experiment on IL-1β stood at 5 nM; in the experiment with TNF-α [1], 0.3 nM. Besides, the inhibition in vivo at 1 mg/kg in the experiment with TNF-α [2] came to 49%.

Regarding `Cc1ccc(-c2cn(CC(=O)N3CCCC3)nn2)cc1C(=O)c1ccc(Nc2ccc(F)cc2F)cc1Cl` [Compound 114, 2-(4-{3-[2-Chloro-4-(2,4-difluoro-phenylamino)-benzoyl]-4-methyl-phenyl}-[1,2,3]triazol-1-yl)-1-pyrrolidin-1-yl-ethanone], the IC50 in the experiment with IL-1β was found to be 0.4 nM; in the experiment on TNF-α [1], 0.3 nM. Moreover, the inhibition in vivo at 1 mg/kg in the experiment on TNF-α [2] is 86%.

As to `Cc1ccc(-c2cn(CC(=O)N3CCOCC3)nn2)cc1C(=O)c1ccc(Nc2ccc(F)cc2F)cc1Cl` [Compound 115, 2-(4-{3-[2-Chloro-4-(2,4-difluoro-phenylamino)-benzoyl]-4-methyl-phenyl}-[1,2,3]triazol-1-yl)-1-morpholin-4-yl-ethanone], the IC50 in the experiment with IL-1β and in the experiment with TNF-α [1] was 0.5 nM throughout. For the same compound, the inhibition in vivo at 1 mg/kg in the experiment with TNF-α [2] was found to be 70%.

As for `Cc1ccc(-c2cn(CCO)nn2)cc1C(=O)c1ccc(Nc2ccc(F)cc2)cc1Cl` [Compound 122, [2-Chloro-4-(4-fluoro-phenylamino)-phenyl]-{5-[1-(2-hydroxy-ethyl)-1H-[1,2,3]triazol-4-yl]-2-methyl-phenyl}-methanone], the values for the IC50 with IL-1β and with TNF-α [1] were 1.4 nM and 0.9 nM, respectively. Further, the inhibition in vivo at 1 mg/kg in the experiment on TNF-α [2] turned out to be 96%.

Consider `Cc1ccc(-c2cn(CC(O)CO)nn2)cc1C(=O)c1ccc(Nc2ccc(F)cc2)cc1Cl` (centres unmarked) [Compound 124, [2-Chloro-4-(4-fluoro-phenylamino)-phenyl]-{5-[1-(2,3-dihydroxy-propyl)-1H-[1,2,3]triazol-4-yl]-2-methyl-phenyl}-methanone], for which the IC50 with IL-1β was 0.8 nM; in the experiment on TNF-α [1] it was 0.5 nM. In the experiment on TNF-α [2], the inhibition in vivo at 1 mg/kg amounted to 77%.

`Cc1ccc(-c2cn(CC(N)=O)nn2)cc1C(=O)c1ccc(Nc2ccc(F)cc2)cc1Cl` [Compound 125, 2-(4-{3-[2-Chloro-4-(4-fluoro-phenylamino)-benzoyl]-4-methyl-phenyl}-[1,2,3]triazol-1-yl)-acetamide]: the IC50 in the experiment with IL-1β is 1 nM; in the experiment on TNF-α [1], 0.5 nM. Moreover, the inhibition in vivo at 1 mg/kg in the experiment with TNF-α [2] worked out at 96%.

Consider `Cc1ccc(-n2cc(CCO)nn2)cc1C(=O)c1ccc(Nc2ccc(F)cc2)cc1Cl` [Compound 127, [2-Chloro-4-(4-fluoro-phenylamino)-phenyl]-{5-[4-(2-hydroxy-ethyl)-[1,2,3]triazol-1-yl]-2-methyl-phenyl}-methanone], for which the IC50 with IL-1β stood at 0.9 nM; with TNF-α [1] it was 0.7 nM. Moreover, the inhibition in vivo at 1 mg/kg with TNF-α [2] was found to be 94%.

Turning to `Cc1ccc(-n2cc(C(C)(C)N)nn2)cc1C(=O)c1ccc(Nc2ccc(F)cc2F)cc1Cl` [Compound 131, {5-[4-(1-Amino-1-methyl-ethyl)-[1,2,3]triazol-1-yl]-2-methyl-phenyl}-[2-chloro-4-(2,4-difluoro-phenylamino)-phenyl]-methanone], the IC50 was determined as 2.5 nM with IL-1β and 1.8 nM in the experiment with TNF-α [1]. The inhibition in vivo at 1 mg/kg in the experiment on TNF-α [2] was 80%.

Turning to `Cc1ccccc1C(=O)c1ccc(Nc2ccccc2N)cc1Cl` [Ref. comp. a, 4-(2-aminophenylamino)-2-chloro-2′-methylbenzophenone], the inhibition in vivo at 10 mg/kg in the experiment on TNF-α [3] amounted to 23%.
